In ChEMBL document CHEMBL1201862, “PubChem BioAssay data set” (2004):
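96-well plates; 48 h exposure; 5 concentrations. Endpoints by linear interpolation between flanking doses. Not reached: highest tested concentration assigned. GI50 marks 50% less growth.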 Calls of active or inactive are those of the source. No stated cut-off is given here; in the data, active = GI50 up to about 1.1 µM and inactive = higher.

Tests used:
Test in all cases: DTP human tumour cell line panel, 48 h
HCT-116 = test system: HCT-116
NCI-H460 = test system: NCI-H460
HOP-62 = test system: HOP-62
HOP-92 = test system: HOP-92
RXF 393 = test system: RXF 393
HL-60 = test system: HL-60
OVCAR-5 = test system: OVCAR-5
SF-295 = test system: SF-295
SK-OV-3 = test system: SK-OV-3
NCI-H23 = test system: NCI-H23
SF-539 = test system: SF-539
NCI-H226 = test system: NCI-H226
LOX IMVI = test system: LOX IMVI
SW-620 = test system: SW-620
SK-MEL-5 = test system: SK-MEL-5
RPMI-8226 = test system: RPMI-8226
NCI-H522 = test system: NCI-H522
CAKI-1 = test system: CAKI-1

SMILES	GI50 (HCT-116)	GI50 (NCI-H460)	GI50 (HOP-62)	GI50 (HOP-92)	GI50 (RXF 393)	GI50 (HL-60)	GI50 (OVCAR-5)	GI50 (SF-295)	GI50 (SK-OV-3)	GI50 (NCI-H23)	GI50 (SF-539)	GI50 (NCI-H226)	GI50 (LOX IMVI)	GI50 (SW-620)	GI50 (SK-MEL-5)	GI50 (RPMI-8226)	GI50 (NCI-H522)	GI50 (CAKI-1)
O=[N+]([O-])c1cnn(C2=CNc3ccccc3N=C2)c1	> 100 µM (inactive)	> 100 µM (inactive)	> 100 µM (inactive)	> 100 µM (inactive)	46.7 µM (inactive)	> 100 µM (inactive)	> 100 µM (inactive)	> 100 µM (inactive)	> 100 µM (inactive)	> 100 µM (inactive)	> 100 µM (inactive)	> 100 µM (inactive)	–	–	–	–	–	–
O=C1CC[C@@H](S(=O)(=O)c2ccccc2)[C@@H](/C=C/c2ccccc2)O1	> 100 µM (inactive)	> 100 µM (inactive)	> 100 µM (inactive)	–	> 100 µM (inactive)	> 100 µM (inactive)	> 100 µM (inactive)	> 100 µM (inactive)	> 100 µM (inactive)	> 100 µM (inactive)	> 100 µM (inactive)	> 100 µM (inactive)	> 100 µM (inactive)	> 100 µM (inactive)	> 100 µM (inactive)	> 100 µM (inactive)	> 100 µM (inactive)	–
Cc1ccc2c(ccc(/C=C\c3cc(C)c4cccnc4c3O)[n+]2C)c1	0.61 µM (active)	0.439 µM (active)	5.5 µM (inactive)	–	–	0.454 µM (active)	22 µM (inactive)	10 µM (inactive)	–	2.67 µM (inactive)	1.64 µM (inactive)	1.4 µM (inactive)	0.791 µM (active)	1.66 µM (inactive)	0.372 µM (active)	0.401 µM (active)	4.34 µM (inactive)	5.53 µM (inactive)
COC(=O)C1=C(C[S+]([O-])c2ccc([N+](=O)[O-])cc2[N+](=O)[O-])C2C=CC1C2 (stereo not given)	21.8 µM (inactive)	35.9 µM (inactive)	> 100 µM (inactive)	–	26.2 µM (inactive)	16.2 µM (inactive)	> 100 µM (inactive)	65 µM (inactive)	38.3 µM (inactive)	26.4 µM (inactive)	24.3 µM (inactive)	31.4 µM (inactive)	13.5 µM (inactive)	14.4 µM (inactive)	63.2 µM (inactive)	77.1 µM (inactive)	13.8 µM (inactive)	21.1 µM (inactive)
CC(=O)NC1=C(Nc2ccc(C)cc2)C(=O)c2ccccc2C1=O	19.9 µM (inactive)	12.1 µM (inactive)	17.1 µM (inactive)	–	23.5 µM (inactive)	10.2 µM (inactive)	13.3 µM (inactive)	18.2 µM (inactive)	> 75 µM (inactive)	8.02 µM (inactive)	16.2 µM (inactive)	14.1 µM (inactive)	9.53 µM (inactive)	13.5 µM (inactive)	10.2 µM (inactive)	11.7 µM (inactive)	–	43.7 µM (inactive)
COC1O[C@@H]2COC(C)(C)O[C@@H]2C(=O)N1Nc1ccc([N+](=O)[O-])cc1 (stereo not given in full)	> 100 µM (inactive)	> 100 µM (inactive)	> 100 µM (inactive)	> 100 µM (inactive)	> 100 µM (inactive)	> 100 µM (inactive)	> 100 µM (inactive)	> 100 µM (inactive)	> 100 µM (inactive)	> 100 µM (inactive)	> 100 µM (inactive)	> 100 µM (inactive)	31.9 µM (inactive)	25.1 µM (inactive)	> 100 µM (inactive)	21 µM (inactive)	–	> 100 µM (inactive)
COC(=O)[C@@]12C3=NO[C@]1(C(=O)OC)C(O[Si](C)(C)C(C)(C)C)C1OC(C)(C)OC1[C@@H]2[C@@H](OCc1ccccc1)CC3 (stereo not given in full)	8.2 µM (inactive)	–	–	4.4 µM (inactive)	–	3.11 µM (inactive)	–	> 100 µM (inactive)	> 100 µM (inactive)	58.7 µM (inactive)	> 100 µM (inactive)	> 100 µM (inactive)	83.9 µM (inactive)	> 100 µM (inactive)	85.5 µM (inactive)	6.1 µM (inactive)	–	–
